{
  "source": "patent US20260286316A1",
  "about": "“METHOD OF PRODUCTION OF MODIFIED PHAGE AND METHOD OF TREATMENT USING SAME” (priority 2022, published 2026)",
  "key": {"S. aureus CI3 [1]": {"tested_on": "S. aureus CI3", "test": "Rat rhinosinusitis model, efficacy arm (sinus mucosa CFU, biofilm biomass, histopathology)", "type": "in vivo, Sprague Dawley rats", "settings": "Sa87, ½ MIC clindamycin or ½ MIC azithromycin only", "text": "Rat nasal tissues were fixed in 10% neutral buffered formalin. Tissue samples were then decalcified using 9.5% nitric acid in 1% ethylenediaminetetracetic acid (EDTA), processed to paraffin wax, and 6 μm sections cut and stained with H&E. The samples were examined by a veterinary pathologist blinded to the treatments given.\nAn established murine rhinosinusitis model was used with modifications (see YU C-j et al., Chinese Journal of Otorhinolaryngology-Skull Base Surgery 6, 2011; Zhang F et al., Am J Rhinol Allergy 27 (5): 361-366, 2013; and Jin M et al., Ear Arch Oto-Rhino-L 268 (6): 857-861, 2011). […] The sponges were placed at approximately 15 mm from the anterior nostril, located in the ostiomeatal complex. The rats were monitored for a nine-day period to allow for mucosal biofilms to form, and, on the tenth day, the sponges were removed. A two-day recovery was given to the rat before treatments begun. […] Treatments were administered intranasally twice a day for 14 days. Rats were monitored for weight and respiratory alterations (respiration rate; nasal discharge, hyperaemia or pruritus; and sneezing) during treatment, and, 14 days post-treatment initiation, the rats were humanely sacrificed. Their sinus mucosa was harvested for CFU counting, biofilm quantification, histopathology, and phage enumeration. […]\nThe quantification of biofilm biomass on sinus mucosa was determined using an established protocol (Singhal D et al., editors. Quantitative analysis of in vivo mucosal bacterial biofilms. International Forum of Allergy & Rhinology; 2012: Wiley Online Library (27). Briefly, the frontal sinus mucosa was harvested and placed into Dulbecco's Modified Eagle's Medium (Life Technologies, Carlsbad, CA, United States of America) on ice. One piece of mucosa from each frontal sinus was stained with a LIVE/DEAD® BacLight Bacterial Viability Kit (Life Technologies Australia). The stained mucosa was then examined at 20× magnification using a confocal laser scanning microscope (Zeiss LSM700, Carl Zeiss AG, Oberkochen, Germany). […]"}, "[2]": {"tested_on": "S. aureus ATCC51650 and CI11", "test": "Dose-dependence of clindamycin in combination with phage J-Sa36 (OD600)", "type": "cell-based, Staphylococcus aureus", "settings": "with J-Sa36 MOI=0.2, 24 hours; ⅛th the MIC", "method": "(§1) Initial screening was performed in 100 μl in 96 well plates, with follow up experiments in 10 mL culture volume. S. aureus strains were grown on 1.5% Tryptone Soya Agar (TSA) at 37° C. overnight. Single colonies were transferred to Tryptone Soya Broth (TSB) to generate a culture with a starting concentration of 5×10^5 CFU/ml. […] Antibiotics were added to the cultures at ½ MIC (according to the pretest MIC of antibiotics) if required. Optical density (OD) readings at 600 nm were recorded at 24 hours to assess the growth of bacteria co-inoculated with phage unless otherwise specified. Uninoculated, fresh media was included as a sterility control."}, "S. aureus CI3 [3]": {"tested_on": "S. aureus CI3", "test": "Antibiotic sensitivity of the isolate selected for in vivo experiments", "type": "cell-based, Staphylococcus aureus", "method": "(§2) The minimum inhibitory concentration (MIC) of amoxicillin, vancomycin, erythromycin, clindamycin and azithromycin against the S. aureus strains was assessed using the broth microdilution technique as previously described (Wiegand I et al., Nature protocols 3 (2): 163-175, 2008) and breakpoints defined according to CSLI guidelines. Clinical strains resistant to at least one antibiotic in three or more antibiotic categories were defined as multidrug resistant (MDR).\nA fresh culture of CI3 on 1.5% TSA plates was prepared two days before inoculation. A single colony was resuspended in 0.9% saline (ca. 2 ml) to turbidity reading 0.5 McFarland Units and then a 1 in 100 dilution in TSB was cultured overnight one day before the in vivo experiment. CI3 pellets were harvested and resuspended in fresh TSB to reach 2.5×10^9 Colony Forming Units (CFU)/ml."}, "S. aureus CI3 [4]": {"tested_on": "S. aureus CI3", "test": "Phage combined with ½ MIC antibiotics on planktonic S. aureus (OD600), CI3", "type": "cell-based, Staphylococcus aureus", "settings": "½ MIC antibiotic, phage MOI=0.2, 24 hours", "method": "as §1"}, "[5]": {"tested_on": "S. aureus ATCC51650 and CI11 biofilms", "test": "Biofilm viability, AlamarBlue assay", "type": "cell-based, Staphylococcus aureus", "method": "Briefly, a 1.0 McFarland unit S. aureus culture suspended in 1:15 dilution in TSB was added to 96-well microtiter plates (Costar; Corning Incorporated, Corning, NY, United States of America). Plates were incubated for 48 hours at 37° C. on a rotating platform at 70 rpm (3D Gyratory Mixer; Ratek Instruments, Boronia, VIC, Australia) to allow biofilm formation followed by washing with phosphate-buffered saline. […] Wells were treated for 24 hours at 37° C. with gentle shaking. The AlamarBlue viability assay (Thermo Fisher Scientific, Waltham, MA, United States of America) was used as previously described (Richter K et al., editors. Mind “De GaPP”: in vitro efficacy of deferiprone and gallium-protoporphyrin against Staphylococcus aureus biofilms. International Forum of Allergy & Rhinology; 2016: Wiley Online Library to determine the anti-biofilm activity of the phage. Fluorescence was measured in a microplate reader (FLUOstar OPTIMA, BMG LABTECH, Offenburg, Germany) and the percent reduction of biofilm after treatment determined relative to untreated controls."}, "S. aureus ATCC51650": {"tested_on": "S. aureus ATCC51650", "test": "Clindamycin MIC, broth microdilution", "type": "cell-based", "settings": "Staphylococcus aureus", "method": "as §2"}, "S. aureus CI11": {"tested_on": "S. aureus CI11", "test": "Clindamycin MIC, broth microdilution", "type": "cell-based", "settings": "Staphylococcus aureus", "method": "as §2"}},
  "data": [
    {"smiles": "CCC[C@@H]1C[C@@H](C(=O)N[C@@H]([C@H]2O[C@H](SC)[C@H](O)[C@@H](O)[C@H]2O)[C@H](C)Cl)N(C)C1", "note": "[clindamycin]", "values": [
      {"measurement": "histopathology of the maxilloturbinates, single agent", "setting": "S. aureus CI3 [1]", "value": "evidence of cilial denudation and surface epithelial erosion"},
      {"measurement": "lowest effective concentration of clindamycin required to facilitate phage J-Sa36 killing", "setting": "[2]", "value": 0.025, "unit": "µg/mL"},
      {"measurement": "antibiotic sensitivity of the isolate", "setting": "S. aureus CI3 [3]", "value": "sensitive"},
      {"measurement": "synergistic effects with phage J-Sa36, Sa83 and Sa87 on bacterial viability (OD600)", "setting": "S. aureus CI3 [4]", "value": "synergistic effects"},
      {"measurement": "reduction of clindamycin concentration required to significantly reduce biofilm viability by combination with phage", "setting": "[5]", "value": "five"},
      {"measurement": "minimal effective concentration", "setting": "[5]; Staphylococcus aureus, ATCC51650, 24 hours treatment, lower concentrations no significant effect, read-out: clindamycin alone: concentration significantly reducing viability of preformed biofilms", "value": "≥ 0.5", "unit": "µg/mL"},
      {"measurement": "MIC", "setting": "S. aureus ATCC51650", "value": 0.2, "unit": "µg/mL"},
      {"measurement": "MIC", "setting": "S. aureus CI11", "value": 0.2, "unit": "µg/mL"}
    ]}
  ]
}
